Experimental data as given in publication PMC3125149, “SCYX-7158, an Orally-Active Benzoxaborole for the Treatment of Stage 2 Human African Trypanosomiasis” (PLoS Neglected Tropical Diseases, 2011).
Values after ≈ are worked out from the molar mass of the structure shown. Like-named read-outs stand apart in the source and are kept apart here.

Experiments:
T. b. brucei 427 = experiment: In vitro compound sensitivity assay (resazurin viability); format: cell-based; conditions: Trypanosoma brucei
Source text: (§1) The bloodstream-form T. b. brucei 427 strain was obtained from Dr. K. Stuart (Seattle Biomedical Research Institute, Seattle, WA) and was used for routine assessment of compound sensitivity in vitro. Additional strains used in vitro include T. b. rhodesiense STIB900, isolated in 1992 from a patient in Tanzania, and T. b. gambiense 108R, isolated from a patient in Democratic Republic of Congo in 2005. T. b. brucei EATRO 110 was a generous gift from the late William Trager of the Rockefeller University. T. b. brucei TREU 667 strains were kindly provided by F. W. Jennings at the University of Glasgow. Both T. b. brucei EATRO 110 and TREU 667 were cultured according to previously described conditions and used for in vivo studies.[18], [19]
(§2) T. b. brucei was cultured in complete HMI-9 medium,[20] which contains 10% fetal bovine serum (FBS) (Invitrogen, Carlsbad, CA), 10% Serum Plus medium (SAFC Biosciences, Lenexa, KS), and 100 units/mL penicillin and 0.1 mg/mL streptomycin. The trypanosomes were propagated in T-25 vented cap flasks (Corning Inc., Lowell, MA) at 37°C and 5% CO2 with humidity. To ensure log growth phase, trypanosomes were sub-cultured at appropriate dilutions (typically 1∶100) every 2–3 days in fresh HMI-9 medium. T. b. rhodesiense parasites were grown in MEM medium with Earle's salts supplemented with 15% horse serum. For T. b. gambiense, the MEM medium was supplemented with 5% heat-inactivated fetal calf serum (FCS) and 15% human serum.[21] L929 mouse fibroblast cells (ATCC CCL1, American Type Culture Collection, Rockville, MD) were used to determine parasite versus mammalian cell selectivity. Cells were cultured in Dulbecco's Modified Eagle Medium (DMEM), supplemented with 10% FBS, L-glutamine and 100 units/mL penicillin and 0.1 mg/mL streptomycin. MDCKII-hMDR1 cells were generously provided by P. Borst at the Netherlands Kancer Institute. Cells were cultured in DMEM with Glutamax, 10% (v/v) FBS, and 100 units/mL penicillin and 0.1 mg/mL streptomycin. Cell monolayers were fed with cell culture media 24 h after seeding and used for permeability studies 3 days later.
(§3) Compounds to be tested were serially diluted in DMSO and added to 96-well plates to give final concentrations ranging from 5 to 0.01 µg/mL. T. b. brucei parasites in the log phase of growth were diluted in HMI-9 media and added to each well for a final concentration of 1×10^4 parasites per well. For the sensitivity assays using T. b. rhodesiense and T. b. gambiense, pararasites were cultured in MEM supplemented with Baltz components (8), diluted in the aforementioned culture media, and added to each well at a density of 1×10^3 cells/well. The final concentration of DMSO was 0.5% and the total volume was 100 µL/well. After a 72 h incubation, resazurin (Sigma-Aldrich, St. Louis, MO) was added to each well [20 µL of 25 mg/100 mL stock in phosphate buffered saline (PBS)] and incubated for an additional 4–6 h.[22] To assess cell viability, fluorescence was quantified using an EnVision Multilabel Plate Reader (Perkin Elmer, Waltham, MA) at an excitation wavelength of 530 nm and emission of 590 nm. Triplicate data points were averaged to generate sigmoidal dose-response curves and determine IC50 values using XLfit curve fitting software from IDBS (Guilford, UK). The IC50 is defined as the amount of compound required to decrease parasite or cell viability by 50% compared to those grown in the absence of the test compound. […]

T. b. gambiense 108R = experiment: as above; format: cell-based; conditions: Trypanosoma brucei, 72 h incubation, n = 1
Source text: as §1, §2, §3

[1] = test system: T. b. rhodesiense STIB 900; experiment: as above; format: cell-based; conditions: Trypanosoma brucei; 72 h incubation; n = 1
Source text: as §1, §2, §3

[2] = test system: L929 mouse fibroblast cells; experiment: Mammalian cell cytotoxicity; format: cell-based
Description: as §2, with “later. […]” for “later.”

CYP2C19 = molecular target: T1, CYP2C19 (Homo sapiens, UniProt P33261); experiment: P450-Glo cytochrome P450 inhibition; format: biochemical; conditions: human recombinant CYP2C19
T1 construct: purchased Promega Inc., Madison, WI
Description: The potential for compound to exert drug-drug interactions that are mediated through inhibition of cytochrome P450 activities was assessed using P450-Glo assay kits (Promega Inc., Madison, WI). Assays for human cytochrome P450 isoforms 3A4, 1A2, 2C9, 2C19, and 2D6 were performed in triplicate according to the manufacturer's instructions over the concentration range 1–100 µM (n = 6 levels). Briefly, SCYX-7158 was added to membrane preparations containing human recombinant CYP450 enzymes together with luminogenic substrates specific to each isoform. Specific CYP450 inhibitors were included as positive controls (ketoconazole, CYP3A4; alpha-napthoflavone, 1A2; sulfaphenazole, CYP2C9; troglitazone, 2C19, and quinidine, CYP2D6). Reactions were initiated by addition of NADPH-regenerating solution and were allowed to incubate for an additional 15–30 min (isoform dependent). Luciferin detection reagent, containing the luciferin-labeled probe substrate, was then added. Luminescence was recorded on an EnVision Multilabel Plate Reader. Calculation of IC50 concentrations for each enzyme was determined using GraphPad Prism (V5.01).

[3] = Steady-state pharmacokinetics in T. brucei-infected mice; format: in vivo, mouse; conditions: for AUC(0-inf) / Cmax: mouse; for AUC(0-inf): read-out: AUC0-inf in brain tissue
Description: The blood distribution, CNS disposition and pharmacokinetics of SCYX-7158 were evaluated in infected or non-infected rodents following intravenous or oral administration of compounds. Pharmacokinetics and bioavailability of SCYX-7158 were also evaluated in non-infected beagle dogs and cynomolgus monkeys. In-life phases of non-infected rodent studies were performed at Vivisource (Waltham, MA); studies in non-naïve cynomolgus monkeys were performed by SNBL USA (Everett, WA).
Samples of plasma (25 µL) and CSF (10 µL) were treated with 3 volumes of ice-cold methanol (containing 25 ng/mL of 2-chloro-4-fluoro-N-(1-hydroxy-1,3-dihyrobenzo[c][1], [2]oxaborol-6-yl)benzamide or 25 ng/mL d6-SCYX-7158 as an internal standard) to precipitate proteins. Treated samples were gently mixed at room temperature for 10 min, and then centrifuged at approximately 3000×g for 15 min at 15°C. The supernatants were transferred to 96-well plates or HPLC vials for analysis by LC-MS/MS.
Pharmacokinetic parameters were calculated from composite mean plasma or tissue data using non-compartmental (oral and intravenous routes) and bi-exponential (intravenous route) analyses in Microsoft Excel.

T1 sequence (P33261 whole entry): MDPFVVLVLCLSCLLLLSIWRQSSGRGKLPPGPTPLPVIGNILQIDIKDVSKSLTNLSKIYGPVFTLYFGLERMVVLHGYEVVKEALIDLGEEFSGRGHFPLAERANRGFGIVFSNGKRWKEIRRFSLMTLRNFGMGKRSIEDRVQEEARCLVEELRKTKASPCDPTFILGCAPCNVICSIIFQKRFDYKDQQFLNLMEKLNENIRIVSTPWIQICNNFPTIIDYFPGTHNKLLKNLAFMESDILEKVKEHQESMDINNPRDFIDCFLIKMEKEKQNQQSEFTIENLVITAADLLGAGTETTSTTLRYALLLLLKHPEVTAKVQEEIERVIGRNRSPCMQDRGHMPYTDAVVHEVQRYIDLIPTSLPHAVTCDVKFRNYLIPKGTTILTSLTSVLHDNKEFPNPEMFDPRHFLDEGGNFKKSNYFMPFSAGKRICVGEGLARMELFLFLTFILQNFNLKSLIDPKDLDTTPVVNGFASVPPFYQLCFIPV

With `CC1(C)OB(O)c2cc(NC(=O)c3ccc(F)cc3C(F)(F)F)ccc21` [SCYX-7158] the IC50 (T. b. brucei 427; 72 h incubation, n = 9) was 0.292 ± 0.019 µg/mL (≈ 0.795 µM), the MIC (T. b. brucei 427; T. b. brucei S427, visual inspection) was 0.6 µg/mL (≈ 1.63 µM) and the IC50 (T. b. gambiense 108R) was 0.165 µg/mL (≈ 0.449 µM). For the same compound, the IC50 [1] was 0.294 µg/mL (≈ 0.801 µM), the IC50 ([2]; Mouse L929 fibroblast, n = 4) was greater than 50 µg/mL and the “inhibition of cell proliferation” value ([2]; drug concentrations up to 50 µg/mL) was “no significant inhibition”. The IC50 (CYP2C19) was 23.1 µM, the “time brain concentrations maintained at or above the MIC (0.6 µg/mL)” value ([3]; 25 mg/kg dose) was roughly 24 h and the AUC(0-inf) ([3]; Swiss Webster, brain, 12.5 mg/kg oral, 7 daily doses, infected mice) was 34200 ng·h/mL. For the same compound, the Cmax ([3]; Swiss Webster, brain, 12.5 mg/kg oral, 7 daily doses, infected mice, read-out: Cmax in brain tissue) was 6540 ng/mL, the AUC(0-inf) ([3]; Swiss Webster, brain, 25 mg/kg oral, 7 daily doses, infected mice) was 81500 ng·h/mL and the Cmax ([3]; Swiss Webster, brain, 25 mg/kg oral, 7 daily doses, infected mice, read-out: Cmax in brain tissue) was 12000 ng/mL. The Cmax ([3]; plasma, 25 mg/kg doses, read-out: plasma Cmax at steady-state) was roughly 15000 ng/mL.
